For this experiment, the target named is T1, human PARD-1 (Poly (ADP-Ribose) Polymerase-1) (Homo sapiens, UniProt P09874).
T1 construct: purchased Trevigen Inc., Gaithersburg, Md
Nature of the experiment: Poly (ADP-Ribose) Polymerase-1 in vitro enzyme assay (Universal Colorimetric Assay Kit, Trevigen). Format: biochemical. The note with it: letter codes; read-out: extent of inhibition of PARP activity (IC50, micromolar). As for the experimental part: Poly (ADP-Ribose) Polymerase-1 (PARD-1) In Vitro Enzyme Assay: Compounds were screened for inhibitory activity against human PARD-1 in vitro using the Universal Colorimetric PARD Assay Kit (Trevigen Inc., Gaithersburg, Md.) as directed by the supplier. Compounds are assayed in duplicate in 0.5% DMSO final concentration, negative control is no enzyme, while positive control is DMSO vehicle alone. IC50 determinations are made using Microsoft Excel. For all cell assays, compounds are added to cells in 5% DMSO/PBS for a final concentration of 0.5% DMSO.

Among the data in US20110098304A1, “Small molecule inhibitors of PARP activity” (priority 2009, published 2011) are IC50 values, retold here.

The structures appear in SMILES notation.

T1 sequence (P09874 whole entry): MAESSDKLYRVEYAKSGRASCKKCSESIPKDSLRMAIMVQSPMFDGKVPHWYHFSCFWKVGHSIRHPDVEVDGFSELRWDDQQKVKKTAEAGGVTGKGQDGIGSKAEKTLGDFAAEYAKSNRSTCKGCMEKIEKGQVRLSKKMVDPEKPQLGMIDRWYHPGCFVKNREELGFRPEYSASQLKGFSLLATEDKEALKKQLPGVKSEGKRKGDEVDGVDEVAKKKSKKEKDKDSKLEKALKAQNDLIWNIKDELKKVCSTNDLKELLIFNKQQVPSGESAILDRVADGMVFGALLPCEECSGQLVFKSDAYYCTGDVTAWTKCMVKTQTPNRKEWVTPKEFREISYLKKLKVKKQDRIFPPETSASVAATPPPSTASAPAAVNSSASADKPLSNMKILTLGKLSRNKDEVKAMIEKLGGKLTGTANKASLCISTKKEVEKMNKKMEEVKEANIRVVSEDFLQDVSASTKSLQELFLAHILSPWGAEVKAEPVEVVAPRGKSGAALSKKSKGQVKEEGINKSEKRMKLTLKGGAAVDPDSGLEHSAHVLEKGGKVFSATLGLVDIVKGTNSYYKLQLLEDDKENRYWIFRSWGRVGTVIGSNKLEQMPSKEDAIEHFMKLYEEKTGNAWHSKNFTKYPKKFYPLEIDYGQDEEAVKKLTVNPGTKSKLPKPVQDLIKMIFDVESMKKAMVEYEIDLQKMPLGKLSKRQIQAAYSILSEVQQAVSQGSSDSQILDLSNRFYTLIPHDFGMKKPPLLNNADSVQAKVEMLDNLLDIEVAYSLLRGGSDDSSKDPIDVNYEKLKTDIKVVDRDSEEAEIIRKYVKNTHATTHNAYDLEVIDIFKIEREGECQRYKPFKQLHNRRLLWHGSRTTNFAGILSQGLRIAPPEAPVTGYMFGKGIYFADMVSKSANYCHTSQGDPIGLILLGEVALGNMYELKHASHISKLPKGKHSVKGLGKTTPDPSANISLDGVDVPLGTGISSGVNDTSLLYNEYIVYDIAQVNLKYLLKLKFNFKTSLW

With `CN1CCN(c2ccc(-c3n[nH]c(=O)c4ccccc34)cc2NC(=O)Nc2ccc(F)cc2)CC1` [1-(4-fluorophenyl)-3-(2-(4-methylpiperazin-1-yl)-5-(4-oxo-3,4-dihydrophthalazin-1-yl)phenyl)urea], the IC50 (in general, the concentration that inhibits the measured activity by half) lay within 0.1 to 1 µM.
With `CN1CCN(c2ccc(-c3n[nH]c(=O)c4ccccc34)cc2NC(=O)NC2CCCCC2)CC1` [1-cyclohexyl-3-(2-(4-methylpiperazin-1-yl)-5-(4-oxo-3,4-dihydrophthalazin-1-yl)phenyl)urea] the figure was 0.1 to 1 µM.
`CN1CCN(c2ccc(-c3n[nH]c(=O)c4ccccc34)cc2NC(=O)NC2CCCC2)CC1` [1-cyclopentyl-3-(2-(4-methylpiperazin-1-yl)-5-(4-oxo-3,4-dihydrophthalazin-1-yl)phenyl)urea]: the IC50 lay in the range of 0.1 to 1 µM.
With `CCNC(=O)Nc1cc(-c2n[nH]c(=O)c3ccccc23)ccc1N1CCN(C)CC1` [1-ethyl-3-(2-(4-methylpiperazin-1-yl)-5-(4-oxo-3,4-dihydrophthalazin-1-yl)phenyl)urea] the figure was 1 to 5 µM; with `CNC(=O)Nc1cc(-c2n[nH]c(=O)c3ccccc23)ccc1N1CCN(C)CC1` [1-methyl-3-(2-(4-methylpiperazin-1-yl)-5-(4-oxo-3,4-dihydrophthalazin-1-yl)phenyl)urea], 0.1 to 1 µM; with `CN1CCN(c2ccc(-c3n[nH]c(=O)c4ccccc34)cc2NC(=O)NC(C)(C)C)CC1` [1-tert-butyl-3-(2-(4-methylpiperazin-1-yl)-5-(4-oxo-3,4-dihydrophthalazin-1-yl)phenyl)urea], 0.1 to 1 µM.
With `Nc1cc(-c2n[nH]c(=O)c3ccccc23)ccc1N1CCN(CC(=O)O)CC1` [2-(4-(2-amino-4-(4-oxo-3,4-dihydrophthalazin-1-yl)phenyl)piperazin-1-yl)acetic acid] the figure was 0.001 to 0.1 µM; with `CN1CCN(c2ccc(-c3n[nH]c(=O)c4ccccc34)cc2NC(=O)CCl)CC1` [2-chloro-N-(2-(4-methylpiperazin-1-yl)-5-(4-oxo-3,4-dihydrophthalazin-1-yl)phenyl)acetamide], 0.1 to 1 µM; with `N#CCCN1CCN(c2ccc(-c3n[nH]c(=O)c4ccccc34)cc2N)CC1` [3-(4-(2-amino-4-(4-oxo-3,4-dihydrophthalazin-1-yl)phenyl)piperazin-1-yl)propanenitrile], 0.001 to 0.1 µM.
With `Nc1cc(-c2n[nH]c(=O)c3ccccc23)ccc1N1CCN(CCC(=O)O)CC1` [3-(4-(2-amino-4-(4-oxo-3,4-dihydrophthalazin-1-yl)phenyl)piperazin-1-yl)propanoic acid] the figure was 0.1 to 1 µM.
In the case of `CN1CCN(c2ccc(-c3n[nH]c(=O)c4ccccc34)cc2NC(=O)c2cccc(C#N)c2)CC1` [3-cyano-N-(2-(4-methylpiperazin-1-yl)-5-(4-oxo-3,4-dihydrophthalazin-1-yl)phenyl)benzamide], the IC50 fell in the range of 0.1 to 1 µM.
With `CN1CCC(N2CCN(c3ccc(-c4n[nH]c(=O)c5ccccc45)cc3N)CC2)CC1` [4-(3-amino-4-(4-(1-methylpiperidin-4-yl)piperazin-1-yl)phenyl)phthalazin-1(2H)-one], the 50% inhibitory concentration (IC50) lay in the range of 0.001 to 0.1 µM.
With `CN(C)CCN1CCN(c2ccc(-c3n[nH]c(=O)c4ccccc34)cc2N)CC1` [4-(3-amino-4-(4-(2-(dimethylamino)ethyl)piperazin-1-yl)phenyl)phthalazin-1(2H)-one] the figure was 0.1 to 1 µM; with `Nc1ccccc1N1CCN(c2ccc(-c3n[nH]c(=O)c4ccccc34)cc2N)CC1` [4-(3-amino-4-(4-(2-aminophenyl)piperazin-1-yl)phenyl)phthalazin-1(2H)-one], 1 to 5 µM.
With `Nc1cc(-c2n[nH]c(=O)c3ccccc23)ccc1N1CCN(CCO)CC1` [4-(3-amino-4-(4-(2-hydroxyethyl)piperazin-1-yl)phenyl)phthalazin-1(2H)-one] the figure was 0.001 to 0.1 µM; with `COCCN1CCN(c2ccc(-c3n[nH]c(=O)c4ccccc34)cc2N)CC1` [4-(3-amino-4-(4-(2-methoxyethyl)piperazin-1-yl)phenyl)phthalazin-1(2H)-one], 0.1 to 1 µM.
